Measurements published in patent publication US10766917B2, “Nucleotides for the treatment of cancer” (IDENIX PHARMACEUTICALS LLC, priority 2015, dated 2020).

What was measured:
Assay type in all cases: cell-based
[1] = system: MDA-MB-231; assay: In vitro inhibition, CellTiter-Glo (CTG) assay
Description: (§1) Cells were grown in RPMI-1640 supplemented with L-Glutamine and 10% FBS of the following cell lines:
(§2) CCRF-CEM; HL-60; KG-1; CFPAC-1; MiaPACA-2; BxPC-3; HepG2; MDA-MB-231; HCT-116; A498; and NCI-H69
(§3) 18, 96 well plates of each cell line were seeded with the optimized number of cells per well in a total volume of 50 μper well. The plates were left overnight. Plate wells were seeded with 100 pt media for media control. The following day, cells were exposed to test compounds as described below. At the same time as drug exposure, a CTG assay was conducted on the 18th plate for the 0 hr count.
(§4) The compounds were added to cells and medium already on the plate to give desired final concentrations. 50 μL media were added to cell control wells, and 50 μL of mix added to vehicle control wells. 10 μM Doxorubicin was added to appropriate wells as control. Cells exposed to test compound were incubated at 37° C. for 72 hr followed by a CTG assay.
(§5) At the end of the 72 hr exposure period, plates were removed for a CellTiter-Glo (CTG) assay from a 37° C., 5% CO2 incubator and placed on the bench at room temperature for 30 mins. 100 μL of CellTiter-Glo reagent was added and mixed for 2 mins, followed by a further 10 min incubation at room temperature. Luminescence was recorded using Synergy 4.0.

[2] = system: MiaPACA-2; assay: In vitro inhibition, CellTiter-Glo (CTG) assay; conditions: 72 hr exposure
Description: as §1, §2, §3, §4, §5

[3] = system: HCT-116; assay: In vitro inhibition, CellTiter-Glo (CTG) assay; conditions: 72 hr exposure
Description: as §1, §2, §3, §4, §5

[4] = system: BxPC-3; assay: In vitro inhibition, CellTiter-Glo (CTG) assay; conditions: 72 hr exposure
Description: as §1, §2, §3, §4, §5

[5] = system: HepG2; assay: In vitro inhibition, CellTiter-Glo (CTG) assay; conditions: 72 hr exposure
Description: as §1, §2, §3, §4, §5

[6] = system: A498; assay: In vitro inhibition, CellTiter-Glo (CTG) assay; conditions: 72 hr exposure
Description: as §1, §2, §3, §4, §5

[7] = system: NCI-H69; assay: In vitro inhibition, CellTiter-Glo (CTG) assay
Description: as §1, §2, §3, §4, §5

[8] = system: KG-1; assay: In vitro inhibition, CellTiter-Glo (CTG) assay
Description: as §1, §2, §3, §4, §5

[9] = system: CFPAC-1; assay: In vitro inhibition, CellTiter-Glo (CTG) assay; conditions: 72 hr exposure
Description: as §1, §2, §3, §4, §5

[10] = system: HL-60; assay: In vitro inhibition, CellTiter-Glo (CTG) assay
Description: as §1, §2, §3, §4, §5

[11] = system: CCRF-CEM; assay: In vitro inhibition, CellTiter-Glo (CTG) assay; conditions: 72 hr exposure
Description: as §1, §2, §3, §4, §5

[12] = system: HuH-1 cells; assay: In vitro inhibition of HuH-1, MTT assay; conditions: Homo sapiens, HuH-1, 72 h, read-out: HuH-1: relative IC50
Description: HuH-1 cells were purchased from JCRB and tested with the following method:
Cells are suspended at a specific density in a specific culture medium (see table in 2.Cell lines).
Then, 100 μl of cell suspension are plated per well in 96-well plates.
Compounds or negative controls (DMSO) are added to the cells (100 μl of a compound solution in its specific medium with a final concentration of 0.15% DMSO).
Each compound concentration is tested in duplicate (6 concentrations per compound).
Cells are incubated at 37° C. for 72 h without treating again.
SDS is added to control wells (final concentration of 1%) and kept for 15 min at 37° C. SDS 1% represents the positive control of proliferation inhibition.
Cell supernatant is removed and 100 μl of a MTT (3-[4.5-dimethylthiazol-2-yl]-2.5-diphenyltetrazolium bromide) solution in fresh medium are added per well (MTT final concentration of 0.5 mg/ml) and incubated for 4 h at 37° C.
MTT reaction is stopped and homogenized by adding 100 μl/well of SDS 10%, 0.01M HCl and incubated for 2 h at 37° C.
Absorbance is measured at 570 nm.

[13] = Homo sapiens, MDA-MB-231, 72 hr exposure
[14] = Homo sapiens, NCI-H69, 72 h, 72 hr exposure
[15] = Homo sapiens, KG-1, 72 h, 72 hr exposure
[16] = Homo sapiens, HL-60, 72 h, 72 hr exposure

SMILES	IC50 [1, 13]	IC50 [2]	IC50 [3]	IC50 [4]	IC50 [5]	IC50 ([6]; Homo sapiens, A498, 72 h)	IC50 [9]	IC50 ([2]; Homo sapiens, MIA PaCa-2, 72 h)	IC50 ([3]; Homo sapiens, HCT-116, 72 h)	IC50 ([5]; Homo sapiens, HepG2, 72 h)	IC50 ([9]; Homo sapiens, CFPAC-1, 72 h)	IC50 ([1]; 72 hr exposure)	IC50 [6]	IC50 ([10]; 72 hr exposure)	IC50 ([7]; 72 hr exposure)	IC50 ([8]; 72 hr exposure)	IC50 [11]	also measured
CC(C)OP1(=O)OC[C@H]2O[C@@H](n3ccc(N)nc3=O)C(F)(F)[C@@H]2O1 (single isomer, unassigned) [102 (diastereomer 2)]	10 to 100 µM	1 to 10 µM	1 to 10 µM	1 to 10 µM	< 1 µM	10 to 100 µM	1 to 10 µM	–	–	–	–	–	–	–	–	–	–	IC50 [7, 14]: 10 to 100 µM; IC50 [8, 15]: < 1 µM
CC(C)OC(=O)[C@H](C)NP1(=O)OC[C@H]2O[C@@H](n3ccc(N)nc3=O)C(F)(F)[C@@H]2O1 (single isomer, unassigned) [103 (diastereomer 1)]	10 to 100 µM	–	–	10 to 100 µM	–	10 to 100 µM	–	1 to 10 µM	1 to 10 µM	< 1 µM	< 1 µM	–	–	–	–	–	–	IC50 ([10]; Homo sapiens, HL-60, 72 hr exposure): < 1 µM; IC50 ([7]; Homo sapiens, NCI-H69, 72 hr exposure): 10 to 100 µM; IC50 ([8]; Homo sapiens, KG-1, 72 hr exposure): < 1 µM; IC50 ([11]; Homo sapiens, CCRF-CEM): < 1 µM
CC(C)OC(=O)[C@H](C)NP1(=O)OC[C@H]2O[C@@H](n3ccc(N)nc3=O)C(F)(F)[C@@H]2O1 (single isomer, unassigned) [103 (diastereomer 2)]	–	1 to 10 µM	1 to 10 µM	1 to 10 µM	< 1 µM	–	1 to 10 µM	–	–	–	–	10 to 100 µM	10 to 100 µM	< 1 µM	10 to 100 µM	< 1 µM	< 1 µM	–
CCOC(=O)COP(=O)(N[C@@H](CC(C)C)C(=O)OCC)OC[C@H]1O[C@@H](n2ccc(N)nc2=O)C(F)(F)[C@@H]1O (single isomer, unassigned) [108 (diastereomer 1)]	1 to 10 µM	–	–	–	–	–	–	< 1 µM	1 to 10 µM	< 1 µM	< 1 µM	–	< 1 µM	–	1 to 10 µM	–	–	IC50 ([4]; Homo sapiens, BXPC-3, 72 h): 1 to 10 µM; IC50 [10, 16]: < 1 µM; IC50 [8, 15]: < 1 µM; IC50 ([11]; Homo sapiens, CCRF-CEM, 72 h): < 1 µM
CCOC(=O)COP(=O)(N[C@@H](CC(C)C)C(=O)OCC)OC[C@H]1O[C@@H](n2ccc(N)nc2=O)C(F)(F)[C@@H]1O (single isomer, unassigned) [108 (diastereomer 2)]	–	< 1 µM	1 to 10 µM	< 1 µM	< 1 µM	–	< 1 µM	–	–	–	–	1 to 10 µM	10 to 100 µM	< 1 µM	10 to 100 µM	< 1 µM	< 1 µM	–
Cn1c(COP(=O)(NCc2ccccc2)OC[C@H]2O[C@@H](n3ccc(N)nc3=O)C(F)(F)[C@@H]2O)cnc1[N+](=O)[O-] (single isomer, unassigned) [112 (diastereomer 1)]	10 to 100 µM	–	–	–	10 to 100 µM	10 to 100 µM	10 to 100 µM	10 to 100 µM	10 to 100 µM	–	–	–	–	–	–	10 to 100 µM	10 to 100 µM	IC50 ([4]; Homo sapiens, BXPC-3, 72 h): 10 to 100 µM; IC50 [10, 16]: 1 to 10 µM; IC50 [7, 14]: 10 to 100 µM
Cn1c(COP(=O)(NCc2ccccc2)OC[C@H]2O[C@@H](n3ccc(N)nc3=O)C(F)(F)[C@@H]2O)cnc1[N+](=O)[O-] (single isomer, unassigned) [112 (diastereomer 2)]	–	10 to 100 µM	10 to 100 µM	10 to 100 µM	1 to 10 µM	–	1 to 10 µM	–	–	–	–	10 to 100 µM	10 to 100 µM	< 1 µM	10 to 100 µM	1 to 10 µM	< 1 µM	–
CC(C)OP1(=O)OC[C@H]2O[C@@H](n3ccc(N)nc3=O)C(F)(F)[C@@H]2O1 (single isomer, unassigned) [Compound 102 (diastereomer 1)]	–	–	10 to 100 µM	10 to 100 µM	–	–	–	1 to 10 µM	–	1 to 10 µM	1 to 10 µM	10 to 100 µM	10 to 100 µM	–	10 to 100 µM	–	–	IC50 [12]: ≥ 0.3 µM
CC(C)OC(=O)[C@H](C)CCO[P@]1(=O)OC[C@H]2O[C@@H](n3ccc(N)nc3=O)C(F)(F)[C@@H]2O1 (single isomer, unassigned) [Compound 120 Diastereoisomer 1]	–	–	–	–	–	–	–	–	–	–	–	–	–	–	–	–	–	IC50 [12]: < 0.3 µM
